Earlier results as cited in patent US20110294815A1, “PROSTACYCLIN ANALOGS” (priority 2008, published 2011).

Settings: patients with hepatic insufficiency vs healthy adults

reduction of clearance compared to healthy adults: up to 80%
SMILES: CCCCC[C@H](O)CC[C@@H]1[C@H]2Cc3cccc(OCC(=O)[O-])c3C[C@H]2C[C@H]1O.[Na+] [treprostinil, (1R,2R,3aS,9aS)-[[2,3,3a,4,9,9a-Hexahydro-2-hydroxy-1-[(3S)-3-hydroxyoctyl]-1H-benz[f]inden-5-yl]oxy]acetic acid monosodium salt]
